Consider one substance from article PMC9102668, “Highly Cytotoxic Osmium(II) Compounds and Their Ruthenium(II) Analogues Targeting Ovarian Carcinoma Cell Lines and Evading Cisplatin Resistance Mechanisms” (International Journal of Molecular Sciences, 2022).

Type in all cases: cell-based
Experiment [1] concerns A2780 and SKOV3 cells and the resistant subcultures. The experiment in a line: Cell cycle distribution, PI staining and FACS. The conditions noted are these: 5 µM, parental A2780 and SKOV3 cells, 48 h treatment, 24 h recovery. Here is the method:
The reduced viability under treatment, as measured by the MTT assay, can be a result of cell cycle arrest and/or increased cell death. To further evaluate the anticancer properties of the ruthenium(II) complexes we measured cell cycle distribution and cell death rates after treatment with Ru3 or Ru14. After seeding and attaching, the cells were treated for 48 h with different concentrations of substances. For cell cycle distribution measurements, a recovery phase of 24 h was added after treatment, and cells were fixed and stained with PI for the DNA content. Arresting of cells in specific cell cycle phases gives them time to resolve the DNA damage (G1 arrest) or is an initial step to apoptosis if DNA damage is too severe (G2/M arrest).
(§1) To examine cell cycle distribution and cell death rates, 30,000 cells were seeded in 12 well plates. After attaching for 24 h cells were treated with Cisplatin, Ru3 and Ru14 for 48 h at various concentrations for cell cycle and cell death analyses. For cell death analysis, immediately after treatment cells were stained with Propidium Iodid (PI) (1 µg/mL) on ice and the number of dead cells was measured using BD Canto II. For cell cycle distribution, cells recovered for 24 h after treatment. Afterwards, cells were fixed in ice-cold, 50% EtOH for 24 h at −20 °C. For DNA staining, fixed cells were incubated in PBS with 0.05% Triton-X, 0.1 µg/mL RNaseA and 50 µg/mL PI for 1 h at 4 °C in dark. DNA content was measured using BD Canto II.

Another experiment relates to Fibroblasts. The experiment in a line: IC50 on non-cancerous cell cultures. Conditions: normal primary short-term cell culture.
Another experiment deals with A2780 cells. Description: Cell death rate, PI staining of live cells (FACS). Conditions: parental A2780, 15 µM, 48 h, PI staining. How it is done:
(§2) For cell death rate analysis, live cells were stained with PI immediately after 48 h treatment. […] Furthermore, resistant cells show much lower Cisplatin-induced cell death rates (Figure 7). […] In A2780 cells, both compounds trigger similar cell death rates in parental and Cisplatin-resistant cells. Cisplatin-resistant SKOV3 are much more sensitive to both ruthenium(II) complexes than the parental counterpart, with a median of 3.3-fold higher sensitivity.
as §1

Another experiment relates to SKOV3 cells. Description: Cell death rate, PI staining of live cells (FACS). The conditions noted are these: parental SKOV3, 15 µM, 48 h. How it is done:
as §2, §1

The next experiment has as its system SKOV3. Description: MTT assay (CellTiter96), cytotoxic activity. Conditions: 48 h incubation. Here is the method:
(§3) The biological behaviour of all substances was characterized by their cytotoxic activity against a panel of cell lines enabling an understanding of the structure-activity relationship. Cytotoxic activity was determined on ovarian carcinoma cell lines SKOV3 and A2780 as well as their Cisplatin resistant analogues (SKOV3cis and A2780cis) and the lung carcinoma cell line A549. Due to a low solubility in water, dmso is used as a solvent for the preparation of a dilution series in cell culture experiments. The toxic influence of dmso was determined earlier and experiments were carried out with 0.5% dmso in cell culture media and this concentration was used as reference sample in each MTT assay (details: Section 3). […] Resistance factors (RF) were determined for all substances (for IC50 values and RF of β-Hydroxydithiocinnamic acid esters L1–L18, see Tables S2 and S3, Supplementary part). All investigated ruthenium(II) compounds show lower RF values than Cisplatin on ovarian carcinoma cell lines, ranging from 0.2 to 1.5 (Table 3). Whereas the IC50 values on the non-resistant cell lines are in most cases higher than the IC50 of the reference substance, no increase of IC50 values is observed for the resistant cell lines. Contrary, eight ruthenium complexes show lower IC50 values on SKOV3cis than Cisplatin and four compounds on A2780cis. Thus, it can be concluded that these compounds are able to bypass the Cisplatin resistance mechanism in these cell lines pointing to a different mechanism of action.
(§4) Ovarian cancer cell lines were cultured under standard conditions (5% CO2, 37 °C, 90% humidity) in RPMI medium supplemented with 10% FCS, 100 U/mL penicillin and 100 µg/mL streptomycin (Life Technologies, Dreieich, Germany). Cisplatin (Sigma, Taufkirchen, Germany) was freshly dissolved at 1 mg/mL in 0.9% NaCl solution and diluted appropriately. New ruthenium(II) complexes and ligands were dissolved in dmso. Platinum-resistant A2780 and SKOV3 cells were established by repeated rounds of 3-day incubations with increasing amounts of Cisplatin starting with 0.1 µM. The concentration was doubled after 3 incubations, interrupted by recovery phases with normal medium. […] Determinations of IC50 values were carried out using the CellTiter96 non-radioactive proliferation assay (MTT assay, Promega, Mannheim, Germany). After seeding 5000 cells per well in a 96-well plate, cells were allowed to attach for 24 h and were incubated for 48 h with different concentrations of the substances ranging from 0 to 500 µM for Ruthenium and 0 to 1000 µM for ligand tests (0, 1, 10, 50, 100, 500, 1000 µm), for Cisplatin from 0 to 100 µM (0.1, 1, 5, 10, 50, 100 µM). Each measurement was done in triplicate and repeated 3 times. The proportion of viable cells was quantified by the MTT assay and after background subtraction relative values compared to the mean of medium controls were calculated. Non-linear regression analyses applying the Hill slope were run in GraphPad 5.0 software.
(Tetrazolium dyes change colour on reduction, which living cells bring about.)

The next experiment has as its system SKOV3cis. The experiment in a line: MTT assay (CellTiter96), cytotoxic activity. Here is the method: as §3, §4
The next experiment concerns A2780. The experiment in a line: MTT assay (CellTiter96), cytotoxic activity. The conditions noted are these: 48 h incubation. How it is done:
as §3, §4

A further experiment relates to A2780cis. The experiment in a line: MTT assay (CellTiter96), cytotoxic activity. Here is the method:
as §3, §4

The subject of a further experiment is A549. The experiment in a line: MTT assay (CellTiter96), cytotoxic activity. Conditions: lung carcinoma cell line, 48 h incubation. Here is the method: as §3, §4
The next experiment has as its system Keratinocytes. The experiment in a line: IC50 on non-cancerous cell cultures. The conditions noted are these: normal primary short-term cell culture.
In the next experiment the test system is MCF10A. The experiment in a line: IC50 on non-cancerous cell cultures. Conditions: non-cancerous breast epithelial cell line.

For cis-[Pt(NH3)2Cl2] [Cisplatin], in experiment [1], the “effect on cell cycle distribution” value is on record as “cell cycle arrest in G2/M phase”. Also, the concentration for half-maximal inhibition (IC50) with Fibroblasts stood at 4.1 µM; in the experiment with SKOV3, 3.8 µM; with SKOV3cis (Cisplatin resistant SKOV3, MTT assay, 48 h incubation), 13.5 µM; in the experiment on A2780, 1.3 µM; in the experiment with A2780cis (Cisplatin resistant A2780, MTT assay, 48 h incubation), 6.1 µM; in the experiment on A549, 7.6 µM. In addition, the IC50 was 5.7 µM with Keratinocytes and 3.3 µM in the experiment on MCF10A. Also, the “cell death compared to untreated cells” value was determined as 29.9 fold in the experiment on A2780 cells and 6.3 fold in the experiment with SKOV3 cells. Also, the “RF SKOV3 (resistance factor)” value with SKOV3cis (SKOV3cis vs SKOV3) is on record as 3.6. The “RF A2780 (resistance factor)” value with A2780cis (A2780cis vs A2780) was 4.7.

By IC50 is commonly meant the midpoint of a concentration-inhibition curve. A low value points to greater potency in that assay.
